PubChem BioAssay AID248 (DTP/NCI, 2004)
Where “and” joins values, the source holds several entries; their conditions need not be identical. Equal values may be shown once. Toxic doses and inconclusive results are not listed. Rule as the data show it: active = T/C of 150% or more; inactive = T/C below 125%.

Test system: L1210 leukemia ip in BDF1 mice, survival T/C
Test: NCI In Vivo Anticancer Drug Screen. Data for tumor model L1210 Leukemia (intraperitoneal) in B6D2F1 (BDF1) mice
Conditions: endpoint: mean survival time, higher = longer survival
In short: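 Transplanted-tumor mice were given test agent; controls received vehicle only. Survival readings from the two groups were divided (treated over control).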

[1] = dose: 100.0 mg/kg/injection, schedule: Q04DX003 (ip), vehicle: saline
[2] = dose: 200.0 mg/kg/injection, schedule: Q04DX003 (ip), vehicle: saline
[3] = dose: 400.0 mg/kg/injection, schedule: Q04DX003 (ip), vehicle: saline
[4] = dose: 75.0 mg/kg/injection, schedule: Q04DX003 (ip), vehicle: saline
[5] = dose: 200.0 mg/kg/injection, schedule: Q04DX002 (ip), vehicle: Klucel (hydroxypropylcellulose) (HPC)
[6] = dose: 100.0 mg/kg/injection, schedule: Q01DX009 (ip), vehicle: saline with Tween-80
[7] = dose: 100.0 mg/kg/injection, schedule: Q04DX003 (ip), vehicle: saline with Tween-80
[8] = dose: 200.0 mg/kg/injection, schedule: Q01DX009 (ip), vehicle: saline with Tween-80
[9] = dose: 200.0 mg/kg/injection, schedule: Q04DX003 (ip), vehicle: saline with Tween-80
[10] = dose: 400.0 mg/kg/injection, schedule: Q01DX009 (ip), vehicle: saline with Tween-80
[11] = dose: 400.0 mg/kg/injection, schedule: Q04DX003 (ip), vehicle: saline with Tween-80
[12] = dose: 100.0 mg/kg/injection, schedule: Q01DX001 (ip), vehicle: saline
[13] = dose: 200.0 mg/kg/injection, schedule: Q01DX001 (ip), vehicle: saline
[14] = dose: 400.0 mg/kg/injection, schedule: Q01DX001 (ip), vehicle: saline
[15] = dose: 100.0 mg/kg/injection, schedule: Q01DX009 (ip), vehicle: Klucel (hydroxypropylcellulose) (HPC)

Measured: T/C

Cc1cccc[c]1[Sb](=[O])([OH])[OH]
inactive: dose: 5.0 mg/kg/injection, schedule: Q01DX001 (ip), vehicle: saline 94 % of control | dose: 10.0 mg/kg/injection, schedule: Q01DX001 (ip), vehicle: saline 97 % of control | dose: 20.0 mg/kg/injection, schedule: Q01DX001 (ip), vehicle: saline 97 % of control | dose: 40.0 mg/kg/injection, schedule: Q01DX001 (ip), vehicle: saline 103 % of control | dose: 80.0 mg/kg/injection, schedule: Q01DX001 (ip), vehicle: saline 105 % of control

COc1ccc(CNCC(=O)O)cc1
inactive: dose: 100.0 mg/kg/injection, schedule: Q01DX009 (ip), vehicle: saline 100 % of control | [1] 96 % of control | dose: 200.0 mg/kg/injection, schedule: Q01DX009 (ip), vehicle: saline 100 % of control | [2] 98 % of control | dose: 400.0 mg/kg/injection, schedule: Q01DX009 (ip), vehicle: saline 105 % of control | [3] 96 % of control

O=C(O)c1ccc[n+](Cc2ccccc2)c1
inactive: [4] 90 % of control | dose: 150.0 mg/kg/injection, schedule: Q04DX003 (ip), vehicle: saline 97 % of control | dose: 300.0 mg/kg/injection, schedule: Q04DX003 (ip), vehicle: saline 94 % of control

O=C(NCc1ccncc1)C(c1ccccc1)c1ccccc1
inactive: dose: 100.0 mg/kg/injection, schedule: Q04DX002 (ip), vehicle: Klucel (hydroxypropylcellulose) (HPC) 96 % of control | [5] 92 % of control

CC(=O)Nc1cccc2c1C(=O)OC2=O
inactive: [6] 105 % of control | [7] 102 % of control | [8] 89 % of control | [9] 99 % of control | [10] 93 % of control | [11] 94 % of control

c1ccc2c(c1)C[N+](=C1CCCCC1)C2
inactive: dose: 75.0 mg/kg/injection, schedule: Q01DX009 (ip), vehicle: saline 91 % of control | [12] 93 % of control | dose: 150.0 mg/kg/injection, schedule: Q01DX009 (ip), vehicle: saline 88 % of control | [13] 97 % of control | dose: 300.0 mg/kg/injection, schedule: Q01DX009 (ip), vehicle: saline 91 % of control | [14] 98 % of control

COc1ccc(C2=CCCCC2)cc1
inactive: [6] 97 % of control | [7] 105 % of control | [8] 91 % of control | [9] 110 % of control | [10] 94 % of control | [11] 103 % of control

O=C(O)CCSc1ccccc1
inactive: dose: 40.0 mg/kg/injection, schedule: Q01DX009 (ip), vehicle: saline with Tween-80 96 % of control | dose: 75.0 mg/kg/injection, schedule: Q01DX009 (ip), vehicle: saline with Tween-80 88 % of control | [4] 96 % of control | dose: 150.0 mg/kg/injection, schedule: Q01DX009 (ip), vehicle: saline with Tween-80 101 % of control

COc1ccc2c(CSc3ncnc4nc[nH]c34)cc(=O)oc2c1
inactive: [5] 94 % of control | dose: 400.0 mg/kg/injection, schedule: Q04DX002 (ip), vehicle: Klucel (hydroxypropylcellulose) (HPC) 94 % of control

S=C(Nc1ccc(Cl)c(Cl)c1)SCc1ccco1
inactive: dose: 30.0 mg/kg/injection, schedule: Q04DX003 (ip), vehicle: saline with Tween-80 101 % of control | dose: 60.0 mg/kg/injection, schedule: Q04DX003 (ip), vehicle: saline with Tween-80 101 % of control | dose: 120.0 mg/kg/injection, schedule: Q04DX003 (ip), vehicle: saline with Tween-80 101 % of control

COC(=O)C(CCCN=C(N)N)NC(=O)OCc1ccccc1 (stereo not given)
inactive: [1] 105 % of control | [2] 110 % of control | [3] 108 % of control

CC(=O)Nc1ccccc1.[Hg]
inactive: dose: 1.56 mg/kg/injection, schedule: Q01DX009 (ip), vehicle: saline with Tween-80 90 % of control | dose: 3.13 mg/kg/injection, schedule: Q01DX009 (ip), vehicle: saline with Tween-80 88 % of control

c1ccc(CNc2nn[nH]n2)cc1
inactive: [7] 96 % of control | [9] 96 % of control | [11] 94 % of control

CCCNC(C)(C)C(SSSC(c1ccc(C(F)(F)F)cc1)C(C)(C)NCCC)c1ccc(C(F)(F)F)cc1 (stereo not given)
inactive: [6] 96 % of control | [8] 100 % of control

COc1ccccc1NC(N)=S
inactive: dose: 25.0 mg/kg/injection, schedule: Q01DX009 (ip), vehicle: Klucel (hydroxypropylcellulose) (HPC) 94 % of control | dose: 25.0 mg/kg/injection, schedule: Q04DX003 (ip), vehicle: Klucel (hydroxypropylcellulose) (HPC) 98 % of control | dose: 50.0 mg/kg/injection, schedule: Q01DX009 (ip), vehicle: Klucel (hydroxypropylcellulose) (HPC) 97 % of control | dose: 50.0 mg/kg/injection, schedule: Q04DX003 (ip), vehicle: Klucel (hydroxypropylcellulose) (HPC) 92 % of control | [15] 101 % of control | dose: 100.0 mg/kg/injection, schedule: Q04DX003 (ip), vehicle: Klucel (hydroxypropylcellulose) (HPC) 103 % of control

COc1ccc(-n2c(=S)[nH]c3ccc(C)cc3c2=O)cc1
inactive: [7] 92 % of control | [9] 87 % of control | [11] 90 % of control

O=C(C=C(C(F)(F)F)C(F)(F)F)c1ccccc1Cl
inactive: dose: 12.5 mg/kg/injection, schedule: Q04DX003 (ip), vehicle: saline with Tween-80 97 % of control | dose: 25.0 mg/kg/injection, schedule: Q04DX003 (ip), vehicle: saline with Tween-80 86 % of control | dose: 50.0 mg/kg/injection, schedule: Q04DX003 (ip), vehicle: saline with Tween-80 100 % of control

O=C1OC(=O)C(=C(c2ccccc2)c2ccccc2)C1=C(c1ccccc1)c1ccccc1
inactive: [15] 101 % of control | dose: 200.0 mg/kg/injection, schedule: Q01DX009 (ip), vehicle: Klucel (hydroxypropylcellulose) (HPC) 92 % of control | dose: 400.0 mg/kg/injection, schedule: Q01DX009 (ip), vehicle: Klucel (hydroxypropylcellulose) (HPC) 92 % of control

CCCCCCCCCCCC(=O)NC(=S)Nc1ccc(C)c(C)c1
inactive: dose: 50.0 mg/kg/injection, schedule: Q01DX001 (ip), vehicle: saline with Tween-80 86 % of control | dose: 100.0 mg/kg/injection, schedule: Q01DX001 (ip), vehicle: saline with Tween-80 91 % of control | [6] 90 % of control and 91 % of control | dose: 100.0 mg/kg/injection, schedule: Q04DX002 (ip), vehicle: saline with Tween-80 103 % of control and 91 % of control | [7] 93 % of control | [8] 103 % of control and 105 % of control | dose: 200.0 mg/kg/injection, schedule: Q04DX002 (ip), vehicle: saline with Tween-80 94 % of control and 88 % of control | [9] 90 % of control | dose: 400.0 mg/kg/injection, schedule: Q04DX002 (ip), vehicle: saline with Tween-80 94 % of control and 91 % of control | [11] 88 % of control

NC1CCCc2ccccc2C1O (stereo not given)
inactive: [12] 102 % of control | [13] 104 % of control

CCCN(/C=C/C=C/C=[N+](CCC)CCC)CCC
inactive: dose: 0.03 mg/kg/injection, schedule: Q04DX003 (ip), vehicle: saline 100 % of control | dose: 0.05 mg/kg/injection, schedule: Q04DX003 (ip), vehicle: saline 109 % of control | dose: 0.1 mg/kg/injection, schedule: Q04DX003 (ip), vehicle: saline 98 % of control

Cn1nnnc1N/N=C/c1ccccc1
inactive: [6] 98 % of control | [8] 95 % of control | [10] 95 % of control

O=C1C=C(C(=O)O)CO1
inactive: [15] 95 % of control

O=C(O)c1cccc2c1-c1ccccc1/C2=N\O
inactive: [12] 100 % of control | [13] 110 % of control | [14] 104 % of control
